Laboratory results as given in ChEMBL document CHEMBL4680208, “Sulfone derivatives enter the cytoplasm of Candida albicans sessile cells” (Eur J Med Chem, 2020).
Values after ≈ are worked out from the molar mass of the structure shown. Blank lines part the entries; values can stand above or below the compound they belong to. Active and inactive are the calls of the source. The calls are words filed in the database; no cut-off is given here.

Assays:
Candida albicans [1] = test: Antibiofilm activity against Candida albicans 90028 assessed as cell killing at 256 ug/ml by XTT assay relative to control; format: functional; settings: dose 256 µg/ml
Candida albicans [2] = test: Antibiofilm activity against Candida albicans 90028 assessed as increasing in cell killing by XTT assay; format: functional
Candida albicans [3] = test: Antifungal activity against Candida albicans 90028 assessed as fungal growth inhibition at 4 ug/ml measured after 48 hrs by microdilution method relative to control; format: functional; settings: read-out: GI
[4] = Cytotoxicity against African green monkey Vero cells by XTT assay; format: cell-based; settings: chlorocebus sabaeus
Candida albicans [5] = test: Induction of plasma membrane disruption in Candida albicans assessed as accidental type cell death at 8 ug/ml measured after 18 hrs by Annexin V-FITC/propidium iodide staining based flow cytometry (reference value: 1.74 +/- 1.37%); settings: dose 8.0 µg/ml
Candida albicans [6] = test: Antifungal activity against Candida albicans 90028 assessed as fungal growth inhibition at 1 ug/ml measured after 48 hrs by microdilution method relative to control; format: functional; settings: read-out: GI
Candida albicans [7] = test: Antifungal activity against Candida albicans 90028 assessed as fungal growth inhibition measured after 48 hrs by microdilution method; format: functional
Candida albicans [8] = test: Antifungal activity against Candida albicans 90028 assessed as fungal growth inhibition at 0.25 ug/ml measured after 18 hrs by microdilution method relative to control; format: functional; settings: read-out: GI
Candida albicans [9] = test: Antifungal activity against Candida albicans 90028 assessed as fungal growth inhibition at 0.5 ug/ml measured after 18 hrs by microdilution method relative to control; format: functional; settings: read-out: GI
[10] = Induction of adhesive activity against Candida albicans assessed as increase in […] adhesion to human TR146 cells at 4 ug/ml incubated for 2 hrs prior to cell infection and measured after 2 hrs by colony counting method relative to control; format: cell-based; settings: tr146, 4 h, dose 4 µg/ml
Vero [11] = test: Cytotoxicity against African green monkey Vero cells at 0.25 to 16 ug/ml by XTT assay relative to control; format: cell-based; settings: chlorocebus sabaeus, at 0.25 to 16 µg/mL, dose 0.25-16 µg/ml
Candida albicans [12] = test: Antifungal activity against Candida albicans 90028 assessed as fungal growth inhibition at 0.25 ug/ml measured after 48 hrs by microdilution method relative to control; format: functional; settings: read-out: GI
Candida albicans [13] = test: Antifungal activity against Candida albicans 90028 assessed as fungal growth inhibition at 0.125 ug/ml measured after 48 hrs by microdilution method relative to control; format: functional; settings: read-out: GI
Candida albicans [14] = test: Antifungal activity against Candida albicans 90028 assessed as fungal growth inhibition at 2 ug/ml measured after 48 hrs by microdilution method relative to control; format: functional; settings: read-out: GI
Candida albicans [15] = test: Antifungal activity against Candida albicans 90028 assessed as fungal growth inhibition at 16 ug/ml measured after 18 hrs by microdilution method relative to control; format: functional; settings: read-out: GI
Candida albicans [16] = test: Antifungal activity against Candida albicans 90028 assessed as fungal growth inhibition at 0.0625 ug/ml measured after 18 hrs by microdilution method relative to control; format: functional; settings: read-out: GI
Candida albicans [17] = test: Antifungal activity against Candida albicans 90028 assessed as fungal growth inhibition at 0.0625 ug/ml measured after 48 hrs by microdilution method relative to control; format: functional; settings: read-out: GI
Candida albicans [18] = test: Antifungal activity against Candida albicans 90028 assessed as fungal growth inhibition at 2 ug/ml measured after 18 hrs by microdilution method relative to control; format: functional; settings: read-out: GI
Candida albicans [19] = test: Fungicidal activity against Candida albicans 90028 preincubated for 48 hrs followed by plating on SD agar and measured after 48 hrs; format: functional; settings: time 96 hrs
Candida albicans [20] = test: Antifungal activity against Candida albicans 90028 assessed as fungal growth inhibition at 0.0313 ug/ml measured after 48 hrs by microdilution method relative to control; format: functional; settings: read-out: GI
Candida albicans [21] = test: Antifungal activity against Candida albicans 90028 assessed as fungal growth inhibition at 0.0313 ug/ml measured after 18 hrs by microdilution method relative to control; format: functional; settings: read-out: GI
Candida albicans [22] = test: Antifungal activity against Candida albicans 90028 assessed as fungal growth inhibition at 16 ug/ml measured after 48 hrs by microdilution method relative to control; format: functional; settings: read-out: GI
[23] = Toxicity in Galleria mellonella larvae assessed as survival at 16 ug/ml relative to control; settings: at 16 µg/mL
Candida albicans [24] = test: Antifungal activity against Candida albicans 90028 assessed as fungal growth inhibition at 1 ug/ml measured after 18 hrs by microdilution method relative to control; format: functional; settings: read-out: GI
Candida albicans [25] = test: Antifungal activity against Candida albicans 90028 assessed as fungal growth inhibition at 4 ug/ml measured after 18 hrs by microdilution method relative to control; format: functional; settings: read-out: GI
Candida albicans [26] = test: Antifungal activity against Candida albicans 90028 infected in Galleria mellonella larvae at 16 ug/ml by H and E staining based histological analysis; format: functional, organism-based; settings: dose 16.0 µg/ml
Candida albicans [27] = test: Antifungal activity against Candida albicans 90028 assessed as fungal growth inhibition at 0.5 ug/ml measured after 48 hrs by microdilution method relative to control; format: functional; settings: read-out: GI
[28] = Cytotoxicity against human MRC5 cells by CellTiter 96 Aqueous One Solution Reagent based assay; format: cell-based
Candida albicans [29] = test: Antifungal activity against Candida albicans 90028 assessed as fungal growth inhibition at 8 ug/ml measured after 48 hrs by microdilution method relative to control; format: functional; settings: read-out: GI
Candida albicans [30] = test: Antifungal activity against Candida albicans 90028 assessed as fungal growth inhibition at 8 ug/ml measured after 18 hrs by microdilution method relative to control; format: functional; settings: read-out: GI
Candida albicans [31] = test: Anti-adhesive activity against Candida albicans assessed as reduction in […] adhesion to human TR146 cells at 8 ug/ml incubated for 2 hrs prior to cell infection and measured after 2 hrs by colony counting method relative to control; format: functional; set-up: scale not given: the % may be the effect or the level left; settings: dose 8 µg/ml; time 4 hrs
Candida albicans [32] = test: Antifungal activity against Candida albicans 90028 assessed as fungal growth inhibition at 0.125 ug/ml measured after 18 hrs by microdilution method relative to control; format: functional; settings: read-out: GI
[33] = Drug uptake in Galleria mellonella larvae assessed as increase in fluorescence between cell wall and muscle layer measured after 2 hrs by fluorescence assay; format: ADME
Vero [34] = test: Cytotoxicity against African green monkey Vero cells at 0.25 to 512 ug/ml by XTT assay relative to control; format: cell-based; settings: chlorocebus sabaeus, at 0.25 to 512 µg/mL, dose 0.25-512 µg/ml
Candida albicans [35] = test: Induction of cell demise in Candida albicans infected in human MRC5 cells at 16 ug/ml measured after 18 hrs by AO/propidium iodide staining based confocal laser scanning microscopy; format: functional, organism-based; settings: dose 16.0 µg/ml
[36] = Drug uptake in Galleria mellonella larvae assessed as increase in fluorescence near the proventriculus measured after 2 hrs by fluorescence assay; format: ADME
Candida albicans [37] = test: Induction of cell demise in Candida albicans infected in human TR146 cells at 16 ug/ml measured after 18 hrs by AO/propidium iodide staining based confocal laser scanning microscopy; format: functional, organism-based; settings: dose 16.0 µg/ml
Candida albicans [38] = test: Induction of plasma membrane permeabilization in Candida albicans infected in human TR146 cells at 16 ug/ml measured after 18 hrs by propidium iodide staining based confocal laser scanning microscopy; format: functional, organism-based; settings: dose 16.0 µg/ml
[39] = Drug uptake in Galleria mellonella larvae assessed as increase in fluorescence in longitudinal larva slides measured after 2 hrs by fluorescence assay; format: ADME, tissue-based
Candida albicans [40] = test: Induction of plasma membrane permeabilization in Candida albicans infected in human MRC5 cells at 16 ug/ml measured after 18 hrs by propidium iodide staining based confocal laser scanning microscopy; format: functional, organism-based; settings: dose 16.0 µg/ml

SMILES: NNc1ccc(S(=O)(=O)C(F)(F)I)cc1[N+](=O)[O-]
Activity (Candida albicans [1]): 40%
CC50 (Candida albicans [2]): ≤ 64 µg/mL
inhibition of growth at 4 µg/mL (Candida albicans [3]): 74.9%
CC50 [4]: ≥ 32 µg/mL
Activity (Candida albicans [5]): 74.8%
inhibition of growth at 1 µg/mL (Candida albicans [6]): 72.9%
MIC90 (Candida albicans [7]): 8 µg/mL (≈ 20.4 µM)
inhibition of growth at 0.25 µg/mL (Candida albicans [8]): 100%
inhibition of growth at 0.5 µg/mL (Candida albicans [9]): 99.7%
fold change (FC) [10]: 13.78
Activity (Vero [11]): 12.54%
inhibition of growth at 0.25 µg/mL (Candida albicans [12]): 69.5%
inhibition of growth at 0.125 µg/mL (Candida albicans [13]): 22.9%
inhibition of growth at 2 µg/mL (Candida albicans [14]): 72.8%
inhibition of growth at 16 µg/mL (Candida albicans [15]): 100%
inhibition of growth at 0.0625 µg/mL (Candida albicans [16]): 100%
inhibition of growth at 0.0625 µg/mL (Candida albicans [17]): 15.5%
inhibition of growth at 2 µg/mL (Candida albicans [18]): 100%
MFC (Candida albicans [19]): 8 µg/mL (≈ 20.4 µM)
inhibition of growth at 0.0313 µg/mL (Candida albicans [20]): 22%
inhibition of growth at 0.0313 µg/mL (Candida albicans [21]): 88.2%
inhibition of growth at 16 µg/mL (Candida albicans [22]): 100%
survival [23]: 100%
inhibition of growth at 1 µg/mL (Candida albicans [24]): 100%
inhibition of growth at 4 µg/mL (Candida albicans [25]): 100%
Activity (Candida albicans [26]): inactive
inhibition of growth at 0.5 µg/mL (Candida albicans [27]): 70.1%
CC50 [28]: ≥ 16 µg/mL
inhibition of growth at 8 µg/mL (Candida albicans [29]): 100%
inhibition of growth at 8 µg/mL (Candida albicans [30]): 100%
Activity (Candida albicans [31]): 100%
inhibition of growth at 0.125 µg/mL (Candida albicans [32]): 73.7%

Drug uptake [33]: Active
SMILES: O=Cc1ccc(C2=C3C=CC=[N+]3[B-](F)(F)n3cccc32)cc1

SMILES: O=[N+]([O-])c1cc(S(=O)(=O)C(F)(F)Cl)ccc1N/N=C\c1ccc(C2=C3C=CC=[N+]3[B-](F)(F)n3cccc32)cc1
Activity (Vero [34]): 100%
inhibition of growth at 4 µg/mL (Candida albicans [3]): 100%
Activity (Candida albicans [35]): Active
inhibition of growth at 1 µg/mL (Candida albicans [6]): 100%
Drug uptake [36]: Active
Activity (Candida albicans [37]): Active
MIC (Candida albicans [7]): inactive
inhibition of growth at 0.25 µg/mL (Candida albicans [8]): 100%
inhibition of growth at 0.5 µg/mL (Candida albicans [9]): 99.8%
inhibition of growth at 0.25 µg/mL (Candida albicans [12]): 99.9%
inhibition of growth at 0.125 µg/mL (Candida albicans [13]): 100%
inhibition of growth at 2 µg/mL (Candida albicans [14]): 100%
Activity (Candida albicans [38]): Active
inhibition of growth at 16 µg/mL (Candida albicans [15]): 100%
inhibition of growth at 0.0625 µg/mL (Candida albicans [16]): 100%
inhibition of growth at 0.0625 µg/mL (Candida albicans [17]): 99.8%
inhibition of growth at 2 µg/mL (Candida albicans [18]): 99.9%
MFC (Candida albicans [19]): ≥ 16 µg/mL
inhibition of growth at 0.0313 µg/mL (Candida albicans [20]): 99.8%
inhibition of growth at 0.0313 µg/mL (Candida albicans [21]): 100%
inhibition of growth at 16 µg/mL (Candida albicans [22]): 100%
survival [23]: 93%
inhibition of growth at 1 µg/mL (Candida albicans [24]): 100%
inhibition of growth at 4 µg/mL (Candida albicans [25]): 100%
Drug uptake [39]: Not Active
Activity (Candida albicans [40]): Active
Activity (Candida albicans [26]): inactive
inhibition of growth at 0.5 µg/mL (Candida albicans [27]): 100%
CC50 [28]: ≥ 16 µg/mL
inhibition of growth at 8 µg/mL (Candida albicans [29]): 100%
inhibition of growth at 8 µg/mL (Candida albicans [30]): 100%
inhibition of growth at 0.125 µg/mL (Candida albicans [32]): 99.8%
